According to patent US8895695B2, “Template-fixed beta-hairpin peptidomimetics with CXCR4 antagonizing activity” (priority 2003, dated 2014):

What was measured:
[1] = system: human red blood cells (hRBC); assay: Hemolysis; format: cell-based
Summary of the method: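 Washed fresh human erythrocytes (20% v/v, about 0.9×10^9 cells/ml final) incubated with peptide at 100 μM for 1 h at 37° C. Supernatant diluted 20-fold and OD540 read. Percent hemolysis relative to 0.1% Triton X-100 in H2O (100%), with PBS alone as 0%.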

[2] = Cytotoxicity assay (MTT reduction), HELA cells; details: human, HELA cells (Acc57);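 also: MTT reduction read as absorbance at 595 nm, blank-corrected and expressed as percent growth relative to the time-zero cell reading, triplicate wells per concentration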
[3] = system: CCRF-CEM cells; assay: Chemotactic assay (cell migration assay); format: cell-based; details: 1 nM SDF-1, 4 hours
Description: (§1) All fine chemicals came from Merck (Darmstadt, Germany).
2.7. Chemotactic Assay (Cell Migration Assay)
The chemotactic response of CCRF-CEM cells to a gradient of stromal cell-derived factor 1α (SDF-1) was measured using disposable assay plates from Neuroprobe (5μ pore size) (Gaithersburg, Md.), according to the manufacturer's directions and references therein [especially ref. 8, below]. Briefly, one 175 cm^2 flask was washed once with Dubecco's phosphate buffered saline (DPBS), and trypsinized for 10 minutes or until cells had lifted. The trypsin was neutralized by the addition of fresh medium containing serum and the cells were pelleted, washed once in DPBS, and resuspended at 1-0.5×10^7 cells/ml in RPMI+0.5% bovine serum albumin (BSA). 45 μl of cell suspension were mixed with 5 μl of 10-fold concentrated PEM peptide diluted in the same assay medium. […] The optical absorbance at 595 nm (ABS595) was read using a Tecan Genios plate reader with Magellan software. The number of cells migrated was determined by comparing ABS595 values against a standard curve generated with a known number of cells in the assay plate and were plotted against SDF-1 concentration to obtain a sigmoidal curve and to determine the IC50 values. The values for IC50 were determined using the Trendline function in Microsoft Excel by fitting a logarithmic curve to the averaged datapoints.

[4] = system: 'CCR5' cells / Hut/4-3 cells co-cultivation; assay: FIGS-Assay; format: cell-based; details: 200 nM peptide, 48 hours of co-cultivation
Description: The assay was performed according to ref. 5, below. Stock dilutions of the peptides (10 mM) were prepared by dissolving in 10 mM Tris-HCl at room temperature. Stock solutions were kept at +4° C., light protected. Working dilutions were prepared extemporaneously by serial dilution in Phosphate Buffered Saline (PBS) and added in a final volume of 10 μl directly to the cell cultures. After 48 hours of co-cultivation the cultures were rinsed with PBS and then exposed to glutaraldehyde/formaldehyde (0.2%/2%) in PBS for five minutes. For photometric quantification the fixed cultures were subsequently incubated with ortho-nitro-phenyl-galactopyranoside (ONPG) as a β-galactosidase substrate, which was enzymatically converted into the chromophore ortho-nitrophenol (ONP). The read out is directly obtained by measuring optical density of wells at 405 nm in an iEMS 96well-plate reader.
as §1

For `N=C(N)NCCC[C@@H]1NC(=O)[C@@H]2CSSC[C@H](NC(=O)[C@H](Cc3ccc4ccccc4c3)NC(=O)[C@H](CCCNC(=N)N)NC(=O)[C@H](CCCNC(=N)N)NC(=O)[C@H]3CCCN3C(=O)CNC1=O)C(=O)N[C@@H](Cc1ccc(O)cc1)C(=O)N[C@@H](CCCNC(N)=O)C(=O)N[C@@H](CCCCN)C(=O)N1CCC[C@@H]1C(=O)N1CCC[C@H]1C(=O)N[C@@H](Cc1ccc(O)cc1)C(=O)N[C@@H](CCCNC(=N)N)C(=O)N[C@@H](CCCNC(N)=O)C(=O)N2` [Ex. 51], the Hemolysis at 100 μM [1] was 0%, the CC50 at 48 h [2] was 97 µM and the IC50 [3] was 0.275 µM. For the same compound, the “FIGS % inhibition at 200 nM” value [4] was 93.9%.
